Laboratory results as given in ChEMBL document CHEMBL3885861, “Open TG-GATES”.

Organism: Rattus norvegicus
Assay: Open TG-GATES - Regimen: Single
Assay type: toxicity, organism-based, Sprague-Dawley
Parameters: regimen Single, gender Male, age 6 weeks
Conditions: in vivo, po, 0 mg/kg, route gavage, dose level Control; for APTT / Bas / Eos / Fbg / Hb / Ht / Lym / MCH / MCHC / MCV / Mono / Neu / PT / Plat / RBC / Ret / WBC: tissue Blood; for KIDNEY_L / KIDNEY_R / KIDNEY_TOTAL: tissue Kidney; for LIVER: tissue Liver; for A/G / ALP / ALT / AST / BUN / CRE / Ca / Cl / DBIL / GLC / IP / K / LDH / Na / PL / RALB / TBIL / TC / TG / TP / gamma-GTP: tissue Plasma

C=CCO [ALLYL ALCOHOL]
TERMINAL_BW (3 h): 221.5 g | APTT (3 h): 19.5 s | Bas (3 h): 0% | Eos (3 h): 1% | Fbg (3 h): 226.4 mg/dL | Hb (3 h): 13.4 g/dL | Ht (3 h): 39.2% | Lym (3 h): 73.8% | MCH (3 h): 20.8 pg | MCHC (3 h): 34.3% | MCV (3 h): 60.8 fL | Mono (3 h): 3% | Neu (3 h): 21.8% | PT (3 h): 12.2 s | Plat (3 h): 135.4 x10_4/uL | RBC (3 h): 645 x10_4/ul | Ret (3 h): 6.7% | WBC (3 h): 82.7 x10_2/uL | KIDNEY_L (3 h): 0.9 g | KIDNEY_R (3 h): 0.9 g | KIDNEY_TOTAL (3 h): 1.8 g | LIVER (3 h): 9.9 g | A/G (3 h): 1.4 | ALP (3 h): 946 IU/L | ALT (3 h): 41.2 IU/L | AST (3 h): 72.2 IU/L | BUN (3 h): 11.2 mg/dL | CRE (3 h): 0.4 mg/dL | Ca (3 h): 10.8 mg/dL | Cl (3 h): 102 meq/L | DBIL (3 h): 0.3 mg/dL | GLC (3 h): 192.4 mg/dL | IP (3 h): 9.1 mg/dL | K (3 h): 3.9 meq/L | LDH (3 h): 190.8 IU/L | Na (3 h): 140 meq/L | PL (3 h): 176.2 mg/dL | RALB (3 h): 3.2 g/dL | TBIL (3 h): 0.4 mg/dL | TC (3 h): 83.8 mg/dL | TG (3 h): 186.2 mg/dL | TP (3 h): 5.6 g/dL | gamma-GTP (3 h): 1.2 IU/L | TERMINAL_BW (6 h): 221.2 g | APTT (6 h): 19.3 s | Bas (6 h): 0% | Eos (6 h): 1% | Fbg (6 h): 235.8 mg/dL | Hb (6 h): 13.4 g/dL | Ht (6 h): 38.9% | Lym (6 h): 73.2% | MCH (6 h): 21.4 pg | MCHC (6 h): 34.5% | MCV (6 h): 62.1 fL | Mono (6 h): 4.2% | Neu (6 h): 21.6% | PT (6 h): 12.2 s | Plat (6 h): 124.2 x10_4/uL | RBC (6 h): 626.2 x10_4/ul | Ret (6 h): 7.3% | WBC (6 h): 115.2 x10_2/uL | KIDNEY_L (6 h): 0.9 g | KIDNEY_R (6 h): 1 g | KIDNEY_TOTAL (6 h): 1.9 g | LIVER (6 h): 9.6 g | A/G (6 h): 1.6 | ALP (6 h): 1049.2 IU/L | ALT (6 h): 33.2 IU/L | AST (6 h): 62.6 IU/L | BUN (6 h): 10 mg/dL | CRE (6 h): 0.4 mg/dL | Ca (6 h): 10.5 mg/dL | Cl (6 h): 102.8 meq/L | DBIL (6 h): 0.086 mg/dL | GLC (6 h): 199.6 mg/dL | IP (6 h): 8.9 mg/dL | K (6 h): 3.8 meq/L | LDH (6 h): 195.6 IU/L | Na (6 h): 140.8 meq/L | PL (6 h): 146 mg/dL | RALB (6 h): 3.4 g/dL | TBIL (6 h): 0.1 mg/dL | TC (6 h): 74.8 mg/dL | TG (6 h): 66.2 mg/dL | TP (6 h): 5.5 g/dL | gamma-GTP (6 h): 1 IU/L | TERMINAL_BW (9 h): 217.9 g | APTT (9 h): 18.7 s | Bas (9 h): 0% | Eos (9 h): 1% | Fbg (9 h): 219.6 mg/dL | Hb (9 h): 13.2 g/dL | Ht (9 h): 38.5% | Lym (9 h): 74.8% | MCH (9 h): 20.7 pg | MCHC (9 h): 34.4% | MCV (9 h): 60.2 fL | Mono (9 h): 3.2% | Neu (9 h): 20.4% | PT (9 h): 12.5 s | Plat (9 h): 132.1 x10_4/uL | RBC (9 h): 639.8 x10_4/ul | Ret (9 h): 6.9% | WBC (9 h): 99.3 x10_2/uL | KIDNEY_L (9 h): 1 g | KIDNEY_R (9 h): 0.9 g | KIDNEY_TOTAL (9 h): 1.9 g | LIVER (9 h): 9.1 g | A/G (9 h): 1.5 | ALP (9 h): 880.4 IU/L | ALT (9 h): 28.2 IU/L | AST (9 h): 62.2 IU/L | BUN (9 h): 12 mg/dL | CRE (9 h): 0.4 mg/dL | Ca (9 h): 10.4 mg/dL | Cl (9 h): 101.6 meq/L | DBIL (9 h): 0.08 mg/dL | GLC (9 h): 208.2 mg/dL | IP (9 h): 10.7 mg/dL | K (9 h): 3.6 meq/L | LDH (9 h): 158.4 IU/L | Na (9 h): 141 meq/L | PL (9 h): 148.4 mg/dL | RALB (9 h): 3.3 g/dL | TBIL (9 h): 0.1 mg/dL | TC (9 h): 72.8 mg/dL | TG (9 h): 81 mg/dL | TP (9 h): 5.6 g/dL | gamma-GTP (9 h): 1 IU/L | TERMINAL_BW (24 h): 231.2 g | APTT (24 h): 19.4 s | Bas (24 h): 0% | Eos (24 h): 1% | Fbg (24 h): 235.8 mg/dL | Hb (24 h): 13.1 g/dL | Ht (24 h): 38.5% | Lym (24 h): 78.2% | MCH (24 h): 20.5 pg | MCHC (24 h): 34.1% | MCV (24 h): 60.3 fL | Mono (24 h): 3% | Neu (24 h): 17.2% | PT (24 h): 12.2 s | Plat (24 h): 140 x10_4/uL | RBC (24 h): 640.6 x10_4/ul | Ret (24 h): 6.2% | WBC (24 h): 99.8 x10_2/uL | KIDNEY_L (24 h): 0.9 g | KIDNEY_R (24 h): 1 g | KIDNEY_TOTAL (24 h): 1.9 g | LIVER (24 h): 10.8 g | A/G (24 h): 1.5 | ALP (24 h): 963.4 IU/L | ALT (24 h): 35.8 IU/L | AST (24 h): 63.2 IU/L | BUN (24 h): 15.8 mg/dL | CRE (24 h): 0.4 mg/dL | Ca (24 h): 10.8 mg/dL | Cl (24 h): 102 meq/L | DBIL (24 h): 0.098 mg/dL | GLC (24 h): 196.4 mg/dL | IP (24 h): 7.1 mg/dL | K (24 h): 4 meq/L | LDH (24 h): 186.4 IU/L | Na (24 h): 140.8 meq/L | PL (24 h): 147.6 mg/dL | RALB (24 h): 3.3 g/dL | TBIL (24 h): 0.2 mg/dL | TC (24 h): 74.2 mg/dL | TG (24 h): 116 mg/dL | TP (24 h): 5.6 g/dL | gamma-GTP (24 h): 0.8 IU/L
